In general, GI50 refers to the concentration that inhibits growth by half. What is called IC50 is the midpoint of a concentration-inhibition curve.

Experiment [1] relates to TICs (Colon 12). In words: Colon tumor-initiating cell growth inhibition (Alamar Blue). It is filed as cell-based. The settings on record: 216 h, 9 days, read-out: Tumor Initiating Cell GI50 Range Colon 12.
Experiment [2] has as its system colon cancer cells (HCT116). Kind of experiment: Cancer cell line growth inhibition (SRB assay). The class given is cell-based. The settings on record: Homo sapiens, HCT-116, read-out: Cancer Cell Line GI50 Range HCT116. Background: The SRB assay estimates cell density from bound dye.
Experiment [3] has as its system TICs (Ovarian 2393A). Kind of experiment: Ovarian tumor-initiating cell growth inhibition (Alamar Blue). It is filed as cell-based. The following applies: 144 h; ovarian TICs, 6 days, Alamar Blue; read-out: Tumor Initiating Cell GI50 Range Ovarain 2393A.
Experiment [4] deals with T1, human PLK4 (Homo sapiens, UniProt O00444).
T1 construct: amino terminal GST fusion of residues 1-391 of human PLK4; made in house; host or cells: E. coli
T1 sequence (O00444 1-391): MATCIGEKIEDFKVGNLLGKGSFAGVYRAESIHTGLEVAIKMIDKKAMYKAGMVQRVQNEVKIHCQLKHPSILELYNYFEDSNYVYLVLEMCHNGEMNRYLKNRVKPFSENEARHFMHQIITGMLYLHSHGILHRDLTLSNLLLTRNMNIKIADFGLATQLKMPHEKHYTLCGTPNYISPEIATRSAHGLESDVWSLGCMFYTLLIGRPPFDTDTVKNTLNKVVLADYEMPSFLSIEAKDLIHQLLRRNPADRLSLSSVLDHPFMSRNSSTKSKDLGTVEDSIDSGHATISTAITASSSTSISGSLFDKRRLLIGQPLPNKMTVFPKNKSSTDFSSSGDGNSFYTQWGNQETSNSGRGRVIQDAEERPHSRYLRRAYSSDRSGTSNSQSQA
In words: PLK4 inhibition assay (indirect ELISA). It is filed as biochemical. The settings on record: 15 μM ATP. Put shortly: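 Dephosphorylated GST-PLK4 (residues 1-391, E. coli; 4 nM) was preincubated 15 min with compound, then reacted 30 min with 15 μM ATP in HEPES pH 7.4, MgCl2, Brij 35 on MBP-coated plates. Phospho-MBP was detected by antibody/HRP ELISA at 450 nm; IC50 from 10-point titration by 4-parameter logistic fit, or single 10 μM % inhibition.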
A general note: ELISA stands for enzyme-linked immunosorbent assay.

In experiment [5] the test system is ovarian cancer cells (PA-1). In words: Cancer cell line growth inhibition (SRB assay). The class given is cell-based. The following applies: read-out: Cancer Cell Line GI50 Range PA-1.
The target of experiment [6] is T2, human TTK (Homo sapiens, UniProt P33981).
T2 construct: amino terminal GST fusion of full length human TTK; purchased Invitrogen
T2 sequence (P33981 1-857): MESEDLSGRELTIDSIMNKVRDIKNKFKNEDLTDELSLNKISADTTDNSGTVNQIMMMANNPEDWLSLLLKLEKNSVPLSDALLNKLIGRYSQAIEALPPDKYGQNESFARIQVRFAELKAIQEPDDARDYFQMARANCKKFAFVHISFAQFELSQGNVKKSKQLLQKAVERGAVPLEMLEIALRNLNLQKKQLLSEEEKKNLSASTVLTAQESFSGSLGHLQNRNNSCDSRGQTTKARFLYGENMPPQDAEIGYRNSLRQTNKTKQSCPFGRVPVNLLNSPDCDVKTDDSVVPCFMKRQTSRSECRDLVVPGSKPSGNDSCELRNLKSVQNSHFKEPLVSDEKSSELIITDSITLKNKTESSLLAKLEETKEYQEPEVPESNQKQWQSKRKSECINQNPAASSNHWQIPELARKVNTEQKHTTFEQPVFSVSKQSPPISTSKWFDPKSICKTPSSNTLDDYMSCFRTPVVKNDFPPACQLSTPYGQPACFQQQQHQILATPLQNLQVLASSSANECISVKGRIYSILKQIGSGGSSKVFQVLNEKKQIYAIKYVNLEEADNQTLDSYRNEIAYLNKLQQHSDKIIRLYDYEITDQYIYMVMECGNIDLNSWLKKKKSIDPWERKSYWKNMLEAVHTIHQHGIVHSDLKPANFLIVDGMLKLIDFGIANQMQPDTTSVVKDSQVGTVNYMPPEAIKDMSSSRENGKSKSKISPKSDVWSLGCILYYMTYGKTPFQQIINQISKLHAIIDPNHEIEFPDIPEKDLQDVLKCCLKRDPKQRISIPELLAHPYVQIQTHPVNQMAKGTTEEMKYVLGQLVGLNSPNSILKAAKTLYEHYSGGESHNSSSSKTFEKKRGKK
Kind of experiment: TTK inhibition assay (indirect ELISA). It is filed as biochemical. The settings on record: read-out: TTK IC50 Range.

The subject of experiment [7] is Breast cancer cells. Kind of experiment: Cancer cell line growth inhibition (SRB assay). It is filed as cell-based. The settings on record: Homo sapiens; MDA-MB-468; read-out: Cancer Cell Line GI50 Range MDA-MB-468.
Setting [8] is: HCT116 colon cancer cells, SRB assay.
The mark [9] stands for this setting: PA-1 ovarian cancer cells, SRB assay.

Each structure is given as a SMILES string. Where two headings read alike, the source gives them in different places.

Regarding `O=C(Nc1ccc2[nH]nc(-c3ccc(OC4CCOCC4)cc3)c2c1)C(c1ccsc1)N1CCCC1` (stereo not shown) [Example A29, 2-(pyrrolidin-1-yl)-N-(3-(4-((tetrahydro-2H-pyran-4-yl)oxy)phenyl)-1H-indazol-5-yl)-2-(thiophen-3-yl)acetamide], the GI50 is less than 100 nM in experiment [1] (colon TICs, Alamar Blue); less than 100 nM in experiment [2] (setting [8]); 100 to 500 nM in experiment [3]. Besides, the IC50 in experiment [4] was less than 50 nM.
In the case of `Cc1ccccc1C(C(=O)Nc1ccc2[nH]nc(-c3ccc(OC4CCN(C)CC4)cc3)c2c1)N1CCCC1` (stereo not shown) [Example A133, N-(3-(4-((1-methylpiperidin-4-yl)oxy)phenyl)-1H-indazol-5-yl)-2-(pyrrolidin-1-yl)-2-(o-tolyl)acetamide], the GI50 in experiment [1] (colon TICs, Alamar Blue) was less than 100 nM; in experiment [2] (setting [8]), less than 100 nM; in experiment [3] it was 100 to 500 nM; in experiment [5] (setting [9]) it was less than 100 nM. In experiment [4], the half-inhibitory concentration (IC50) is less than 50 nM.
Regarding `CN1CCC(Oc2ccc(-c3n[nH]c4ccc(C(=O)NC(c5ccccc5Cl)C5CC5)cc34)cc2)CC1` (stereo not shown) [Example A150, N-((2-chlorophenyl)(cyclopropyl)methyl)-3-(4-((1-methylpiperidin-4-yl)oxy)phenyl)-1H-indazole-5-carboxamide], the GI50 was less than 100 nM in experiment [1] (colon TICs, Alamar Blue); less than 100 nM in experiment [2] (setting [8]); less than 100 nM in experiment [3]; less than 100 nM in experiment [5] (setting [9]). In addition, the IC50 in experiment [4] was less than 50 nM.
With `CCOC(C(=O)Nc1ccc2[nH]nc(-c3ccc(OC4CCN(C)CC4)cc3)c2c1)c1ccccc1` (stereo not shown) [Example A181, 2-ethoxy-N-(3-(4-((1-methylpiperidin-4-yl)oxy)phenyl)-1H-indazol-5-yl)-2-phenylacetamide], the GI50 was 100 to 500 nM in experiment [1] (colon TICs, Alamar Blue); 100 to 500 nM in experiment [2] (setting [8]); more than 500 nM in experiment [3]; 100 to 500 nM in experiment [5] (setting [9]). In experiment [4], the IC50 is less than 50 nM.
As to `CC(C)C[C@H](NC(=O)c1ccc2[nH]nc(-c3ccc(N4CCN(C5COC5)CC4)cc3)c2c1)c1ccccn1` [Example A359, (S)-N-(3-methyl-1-(pyridin-2-yl)butyl)-3-(4-(4-(oxetan-3-yl)piperazin-1-yl)phenyl)-1H-indazole-5-carboxamide], the values for the IC50 in experiment [6] and in experiment [4] were less than 100 nM and less than 50 nM, respectively. The GI50 in experiment [2] is less than 100 nM; in experiment [7] it was less than 100 nM; in experiment [5] (Homo sapiens, PA-1) it was less than 100 nM.
For the compound `O=C(NCC1(c2ccccc2)CCOCC1)c1ccc2[nH]nc(-c3ccc(N4[C@@H]5CC[C@H]4C[C@@H](O)C5)cc3)c2c1` [Example A492, 3-(4-((1R,3R,5S)-3-hydroxy-8-azabicyclo[3.2.1]octan-8-yI)phenyl)-N-((4-phenyltetrahydro-2H-pyran-4-yl)methyl)-1H-indazole-5-carboxamide], the half-maximal inhibitory concentration (IC50) in experiment [6] was less than 100 nM; in experiment [4] it was less than 50 nM. Also, the concentration for 50% growth inhibition (GI50) in experiment [1] (Colon 12 TICs) is less than 100 nM; in experiment [2] it was less than 100 nM; in experiment [7], less than 100 nM; in experiment [5] (Homo sapiens, PA-1), less than 100 nM.
Consider `O=C(NC(c1ccccc1Cl)C1CCC1)c1ccc2[nH]nc(-c3ccc(N4CCN(C5COC5)CC4)cc3)c2c1` (stereo not shown) [Example A297, N-((2-chlorophenyl)(cyclobutyl)methyl)-3-(4-(4-(oxetan-3-yl)piperazin-1-yl)phenyl)-1H-indazole-5-carboxamide], for which the IC50 in experiment [6] is less than 100 nM; in experiment [4], less than 50 nM. Also, the GI50 in experiment [2] was less than 100 nM; in experiment [7], less than 100 nM; in experiment [5] (Homo sapiens, PA-1), less than 100 nM.
`CC(C)C[C@H](NC(=O)c1ccc2[nH]nc(-c3ccc(N4C5COCC4CC(O)C5)cc3)c2c1)c1ccccc1Cl` (stereo partly drawn) [Example A424, N-((S)-1-(2-chlorophenyl)-3-methylbutyl)-3-(4-((1R,5S,7R)-7-hydroxy-3-oxa-9-azabicyclo[3.3.1]nonan-9-yl)phenyl)-1H-indazole-5-carboxamide]: the figures for the IC50 in experiment [6] and in experiment [4] were less than 100 nM and less than 50 nM, respectively. Besides, the GI50 is less than 100 nM in experiment [2]; less than 100 nM in experiment [7]; less than 100 nM in experiment [5] (Homo sapiens, PA-1).
In the case of `CN1[C@@H]2CC[C@H]1C[C@@H](Oc1ccc(-c3n[nH]c4ccc(C(=O)NC(c5ccccc5Cl)C5CC5)cc34)cc1)C2` (stereo partly drawn) [Example A280, N-((2-chlorophenyl)(cyclopropyl)methyl)-3-(4-(((1R,3R,5S)-8-methyl-8-azabicyclo[3.2.1]octan-3-yl)oxy)phenyl)-H-indazole-5-carboxamide], the figures for the IC50 in experiment [6] and in experiment [4] were less than 100 nM and less than 50 nM, respectively. In addition, the GI50 was less than 100 nM in experiment [2]; 100 to 500 nM in experiment [7]; less than 100 nM in experiment [5] (Homo sapiens, PA-1).
`CC(C)CC(NC(=O)c1ccc2[nH]nc(-c3ccc(OC4CCN(C5COC5)CC4)cc3)c2c1)c1ccccc1Cl` (stereo not shown) [Example A355, N-(1-(2-chlorophenyl)-3-methylbutyl)-3-(4-((1-(oxetan-3-yl)piperidin-4-yl)oxy)phenyl)-1H-indazole-5-carboxamide]: the results for the IC50 in experiment [6] and in experiment [4] were less than 100 nM and less than 50 nM, respectively. Moreover, the 50% growth inhibitory concentration (GI50) in experiment [2] was in the range of 100 to 500 nM; in experiment [7], 100 to 500 nM; in experiment [5] (Homo sapiens, PA-1), 100 to 500 nM.
Turning to `CC(C)CC(NC(=O)c1ccc2[nH]nc(-c3ccc(OC4CN(C5COC5)C4)cc3)c2c1)c1ccccc1Cl` (stereo not shown) [Example A357, N-(1-(2-chlorophenyl)-3-methylbutyl)-3-(4-((1-(oxetan-3-yl)azetidin-3-yl)oxy)phenyl)-1H-indazole-5-carboxamide], the results for the IC50 in experiment [6] and in experiment [4] were less than 100 nM and less than 50 nM, respectively. In addition, the GI50 in experiment [2] fell in the range of 100 to 500 nM; in experiment [7], 100 to 500 nM; in experiment [5] (Homo sapiens, PA-1) it was 100 to 500 nM.
Regarding `C=CCCC(NC(=O)c1ccc2[nH]nc(-c3ccc(N4CCN(C5COC5)CC4)cc3)c2c1)c1ccccc1Cl` (stereo not shown) [Example A302, N-(1-(2-chlorophenyl)pent-4-en-1-yl)-3-(4-(4-(oxetan-3-yl)piperazin-1-yl)phenyl)-1H-indazole-5-carboxamide], the IC50 was less than 100 nM in experiment [6] and less than 50 nM in experiment [4]. Also, the GI50 is less than 100 nM in experiment [2]; 100 to 500 nM in experiment [7]; less than 100 nM in experiment [5] (Homo sapiens, PA-1).
As to `O=C(N[C@@H](c1ccsc1)C1CCCC1)c1ccc2[nH]nc(-c3ccc(OC4CCN(CCO)CC4)cc3)c2c1` [Example A219, (R)-N-(cyclopentyl(thiophen-3-yl)methyl)-3-(4-((1-(2-hydroxyethyl)piperidin-4-yl)oxy)phenyl)-1H-indazole-5-carboxamide], the IC50 was less than 100 nM in experiment [6] and less than 50 nM in experiment [4]. The GI50 is 100 to 500 nM in experiment [2]; 100 to 500 nM in experiment [7]; less than 100 nM in experiment [5] (Homo sapiens, PA-1).
As to `O=C(NCC1(c2ccccc2)CCOCC1)c1ccc2[nH]nc(-c3ccc(N4[C@@H]5COC[C@H]4C[C@@H](O)C5)cc3)c2c1` [Example A503, 3-(4-((1R,5S,7S)-7-hydroxy-3-oxa-9-azabicyclo[3.3.1]nonan-9-yl)phenyl)-N-((4-phenyltetrahydro-2H-pyran-4-yl)methyl)-1H-indazole-5-carboxamide], the IC50 in experiment [6] is less than 100 nM; in experiment [4], less than 50 nM. For the same compound, the GI50 in experiment [2] is less than 100 nM; in experiment [7] it was 100 to 500 nM; in experiment [5] (Homo sapiens, PA-1), less than 100 nM.

For the origin of these results see patent publication US9580390B2, “Indazole compounds as kinase inhibitors and method of treating cancer with same” (University Health Network, priority 2011, dated 2017).
